# Measured values published in ChEMBL document CHEMBL2202954, “The effect of PLC-γ2 inhibitors on the growth of human tumour cells” (2012).
# Experiments:
# Type in all cases: functional
# SNB-19 = experiment: Cytotoxicity against human SNB19 cells assessed as cellular growth at 10 uM by SRB assay
# HL-60(TB) = experiment: Cytotoxicity against human HL-60(TB) cells assessed as cellular growth at 10 uM by SRB assay
# EKVX = experiment: Cytotoxicity against human EKVX cells assessed as cellular growth at 10 uM by SRB assay
# OVCAR-3 = experiment: Cytotoxicity against human OVCAR3 cells assessed as cellular growth at 10 uM by SRB assay
# PC-3 = experiment: Cytotoxicity against human PC3 cells assessed as cellular growth at 10 uM by SRB assay
# DU-145 = experiment: Cytotoxicity against human DU145 cells assessed as cellular growth at 10 uM by SRB assay
# NCI-H522 = experiment: Cytotoxicity against human NCI-H522 cells assessed as cellular growth at 10 uM by SRB assay
# ACHN = experiment: Cytotoxicity against human ACHN cells assessed as cellular growth at 10 uM by SRB assay
# SN12C = experiment: Cytotoxicity against human SN12C cells assessed as cellular growth at 10 uM by SRB assay
# A549 = experiment: Cytotoxicity against human A549 cells assessed as cellular growth at 10 uM by SRB assay
# CAKI-1 = experiment: Cytotoxicity against human Caki1 cells assessed as cellular growth at 10 uM by SRB assay
# SNB-75 = experiment: Cytotoxicity against human SNB75 cells assessed as cellular growth at 10 uM by SRB assay
# T47D = experiment: Cytotoxicity against human T47D cells assessed as cellular growth at 10 uM by SRB assay
# MDA-MB-231 = experiment: Cytotoxicity against human MDA-MB-231 cells assessed as cellular growth at 10 uM by SRB assay
# NCI-H226 = experiment: Cytotoxicity against human NCI-H226 cells assessed as cellular growth at 10 uM by SRB assay
# UO-31 = experiment: Cytotoxicity against human UO31 cells assessed as cellular growth at 10 uM by SRB assay
# SW-620 = experiment: Cytotoxicity against human SW620 cells assessed as cellular growth at 10 uM by SRB assay
# NCI-H322M = experiment: Cytotoxicity against human NCI-H322M cells assessed as cellular growth at 10 uM by SRB assay
# KM12 = experiment: Cytotoxicity against human KM12 cells assessed as cellular growth at 10 uM by SRB assay
# OVCAR-5 = experiment: Cytotoxicity against human OVCAR5 cells assessed as cellular growth at 10 uM by SRB assay
# RPMI-8226 = experiment: Cytotoxicity against human RPMI8226 cells assessed as cellular growth at 10 uM by SRB assay
# TK-10 = experiment: Cytotoxicity against human TK10 cells assessed as cellular growth at 10 uM by SRB assay
# NCI-H460 = experiment: Cytotoxicity against human NCI-H460 cells assessed as cellular growth at 10 uM by SRB assay
# SF-295 = experiment: Cytotoxicity against human SF295 cells assessed as cellular growth at 10 uM by SRB assay
# UACC-62 = experiment: Cytotoxicity against human UACC62 cells assessed as cellular growth at 10 uM by SRB assay
# K562 = experiment: Cytotoxicity against human K562 cells assessed as cellular growth at 10 uM by SRB assay
# RXF 393 = experiment: Cytotoxicity against human RXF393 cells assessed as cellular growth at 10 uM by SRB assay
# HCT-116 = experiment: Cytotoxicity against human HCT116 cells assessed as cellular growth at 10 uM by SRB assay
# SK-MEL-5 = experiment: Cytotoxicity against human SK-MEL-5 cells assessed as cellular growth at 10 uM by SRB assay
# IGROV-1 = experiment: Cytotoxicity against human IGROV1 cells assessed as cellular growth at 10 uM by SRB assay
# COLO 205 = experiment: Cytotoxicity against human COLO205 cells assessed as cellular growth at 10 uM by SRB assay
# MCF7 = experiment: Cytotoxicity against human MCF7 cells assessed as cellular growth at 10 uM by SRB assay
# MDA-MB-435 = experiment: Cytotoxicity against human MDA-MB-435 cells assessed as cellular growth at 10 uM by SRB assay
# BT-549 = experiment: Cytotoxicity against human BT549 cells assessed as cellular growth at 10 uM by SRB assay
# OVCAR-8 = experiment: Cytotoxicity against human OVCAR8 cells assessed as cellular growth at 10 uM by SRB assay
# M14 = experiment: Cytotoxicity against human M14 cells assessed as cellular growth at 10 uM by SRB assay
# HT-29 = experiment: Cytotoxicity against human HT-29 cells assessed as cellular growth at 10 uM by SRB assay
# SK-MEL-2 = experiment: Cytotoxicity against human SK-MEL-2 cells assessed as cellular growth at 10 uM by SRB assay
# CCRF-CEM = experiment: Cytotoxicity against human CCRF-CEM cells assessed as cellular growth at 10 uM by SRB assay
# SF-268 = experiment: Cytotoxicity against human SF268 cells assessed as cellular growth at 10 uM by SRB assay
# SK-OV-3 = experiment: Cytotoxicity against human SKOV3 cells assessed as cellular growth at 10 uM by SRB assay
# NCI-H23 = experiment: Cytotoxicity against human NCI-H23 cells assessed as cellular growth at 10 uM by SRB assay
# MDA-MB-468 = experiment: Cytotoxicity against human MDA-MB-468 cells assessed as cellular growth at 10 uM by SRB assay
# SF-539 = experiment: Cytotoxicity against human SF539 cells assessed as cellular growth at 10 uM by SRB assay
# U-251 = experiment: Cytotoxicity against human U251 cells assessed as cellular growth at 10 uM by SRB assay
# SK-MEL-28 = experiment: Cytotoxicity against human SK-MEL-28 cells assessed as cellular growth at 10 uM by SRB assay
# [1] = Cytotoxicity against human NCI-ADR-RES cells assessed as cellular growth at 10 uM by SRB assay
# HCC 2998 = experiment: Cytotoxicity against human HCC2998 cells assessed as cellular growth at 10 uM by SRB assay
# Hs-578T = experiment: Cytotoxicity against human Hs578T cells assessed as cellular growth at 10 uM by SRB assay
# MOLT-4 = experiment: Cytotoxicity against human MOLT4 cells assessed as cellular growth at 10 uM by SRB assay
# SR = experiment: Cytotoxicity against human SR cells assessed as cellular growth at 10 uM by SRB assay
# Malme-3M = experiment: Cytotoxicity against human MALME-3M cells assessed as cellular growth at 10 uM by SRB assay
# HCT-15 = experiment: Cytotoxicity against human HCT15 cells assessed as cellular growth at 10 uM by SRB assay
# LOX IMVI = experiment: Cytotoxicity against human LOXIMVI cells assessed as cellular growth at 10 uM by SRB assay
# A498 = experiment: Cytotoxicity against human A498 cells assessed as cellular growth at 10 uM by SRB assay
# 786-0 = experiment: Cytotoxicity against human 786-0 cells assessed as cellular growth at 10 uM by SRB assay
# HOP-62 = experiment: Cytotoxicity against human HOP62 cells assessed as cellular growth at 10 uM by SRB assay
# UACC-257 = experiment: Cytotoxicity against human UACC257 cells assessed as cellular growth at 10 uM by SRB assay
smiles,measurement,setting,value
COc1ccc2nc(NC(=O)c3ccc(F)cc3)sc2c1,Activity,SNB-19,109.05%
same,Activity,HL-60(TB),108.33%
same,Activity,EKVX,79.56%
same,Activity,OVCAR-3,101.58%
same,Activity,PC-3,88.31%
same,Activity,DU-145,105.68%
same,Activity,NCI-H522,75.43%
same,Activity,ACHN,88.79%
same,Activity,SN12C,112.11%
same,Activity,A549,47.59%
same,Activity,CAKI-1,79.13%
same,Activity,SNB-75,109.5%
same,Activity,T47D,76.48%
same,Activity,MDA-MB-231,116.29%
same,Activity,NCI-H226,92.48%
same,Activity,UO-31,99.75%
same,Activity,SW-620,101.19%
same,Activity,NCI-H322M,75.75%
same,Activity,KM12,93.29%
same,Activity,OVCAR-5,97.79%
same,Activity,RPMI-8226,87.06%
same,Activity,TK-10,98.88%
same,Activity,NCI-H460,19.56%
same,Activity,SF-295,54.56%
same,Activity,UACC-62,88.71%
same,Activity,K562,82.42%
same,Activity,RXF 393,110.56%
same,Activity,HCT-116,95.31%
same,Activity,SK-MEL-5,89.97%
same,Activity,IGROV-1,98.94%
same,Activity,COLO 205,115.29%
same,Activity,MCF7,70.13%
same,Activity,MDA-MB-435,96.73%
same,Activity,BT-549,104.05%
same,Activity,OVCAR-8,94.61%
same,Activity,M14,106.56%
same,Activity,HT-29,90.2%
same,Activity,SK-MEL-2,143.55%
same,Activity,CCRF-CEM,91.13%
same,Activity,SF-268,106.57%
same,Activity,SK-OV-3,104.34%
same,Activity,NCI-H23,85.96%
same,Activity,MDA-MB-468,102.55%
same,Activity,SF-539,97.47%
same,Activity,U-251,98.75%
same,Activity,SK-MEL-28,110.86%
same,Activity,[1],89.25%
same,Activity,HCC 2998,87.56%
same,Activity,Hs-578T,114.71%
same,Activity,MOLT-4,87.45%
same,Activity,SR,104.31%
same,Activity,Malme-3M,92.36%
same,Activity,HCT-15,85.45%
same,Activity,LOX IMVI,102.03%
same,Activity,A498,85.54%
same,Activity,786-0,96.69%
same,Activity,HOP-62,108.23%
same,Activity,UACC-257,97.45%
Cc1ccc(NC(=O)c2sc3nc4c(cc3c2N)C(=O)CCC4)cc1Cl,Activity,SNB-19,114.43%
same,Activity,HL-60(TB),105.82%
same,Activity,EKVX,86.19%
same,Activity,OVCAR-3,112.77%
same,Activity,PC-3,103.74%
same,Activity,DU-145,108.78%
same,Activity,NCI-H522,96.14%
same,Activity,ACHN,109.05%
same,Activity,SN12C,119.21%
same,Activity,A549,100.84%
same,Activity,CAKI-1,85.93%
same,Activity,SNB-75,110.07%
same,Activity,T47D,105.09%
same,Activity,MDA-MB-231,113.04%
same,Activity,NCI-H226,101.89%
same,Activity,UO-31,110.67%
same,Activity,SW-620,112.63%
same,Activity,NCI-H322M,109.22%
same,Activity,KM12,115.57%
same,Activity,OVCAR-5,100.98%
same,Activity,RPMI-8226,104.81%
same,Activity,TK-10,96.53%
same,Activity,NCI-H460,106.36%
same,Activity,SF-295,79.97%
same,Activity,UACC-62,108.17%
same,Activity,K562,92.98%
same,Activity,RXF 393,117.2%
same,Activity,HCT-116,105.04%
same,Activity,SK-MEL-5,101.61%
same,Activity,IGROV-1,105.54%
same,Activity,COLO 205,127.7%
same,Activity,MCF7,102.05%
same,Activity,MDA-MB-435,99.15%
same,Activity,BT-549,114.66%
same,Activity,OVCAR-8,103.45%
same,Activity,M14,121.85%
same,Activity,HT-29,97.53%
same,Activity,SK-MEL-2,112.11%
same,Activity,CCRF-CEM,104.3%
same,Activity,SF-268,115.11%
same,Activity,SK-OV-3,113.94%
same,Activity,NCI-H23,100.21%
same,Activity,MDA-MB-468,104.98%
same,Activity,SF-539,102.38%
same,Activity,U-251,97.87%
same,Activity,SK-MEL-28,108.49%
same,Activity,[1],103.82%
same,Activity,HCC 2998,102.57%
same,Activity,Hs-578T,112.53%
same,Activity,MOLT-4,107.73%
same,Activity,SR,105.35%
same,Activity,Malme-3M,112.49%
same,Activity,HCT-15,97.31%
same,Activity,LOX IMVI,99.16%
same,Activity,A498,97.9%
same,Activity,786-0,103.81%
same,Activity,HOP-62,110.02%
same,Activity,UACC-257,95.07%
